Measured values: patent US7112422B2, “Fluorometric assay for detecting nucleic acid cleavage” (Georgetown University, priority 1994, dated 2006)
{FITC} = fluorescein isothiocyanate through the Aminolink 2 six-carbon amine linker

B1: F-D1/T1: 5′-TGAGTACCCGTGTGGAAAATCTCTAGCAGGGNCTATGGCGTCCCCTCTG (SEQ ID NO:3); E-D2: 3′-… (SEQ ID NO:4) (nucleic acid)
sense: TGAGTACCCGTGTGGAAAATCTCTAGCAGGGNCTATGGCGTCCCCTCTG
antisense: NACTGCTAGAGATTTTCCACACGGGTACTCA
modifications: FITC and EITC labels, chemistry not fully specified
notes: FITC-labeled 49-mer hybrid strand of HIV-1 U5 end annealed to EITC-labeled partial complementary strand

Tests used:
[1] = molecular target: T1, BamHI restriction endonuclease (Bacillus amyloliquefaciens, UniProt P23940); assay: BamHI cleavage of FITC-labeled DNA substrate, native 20% PAGE with densitometry; assay type: biochemical, Bacillus amyloliquefaciens H; details: 10 units BamHI in 100 μl, 37° C.
T1 construct: purchased New England Biolab
T1 sequence (P23940 whole entry): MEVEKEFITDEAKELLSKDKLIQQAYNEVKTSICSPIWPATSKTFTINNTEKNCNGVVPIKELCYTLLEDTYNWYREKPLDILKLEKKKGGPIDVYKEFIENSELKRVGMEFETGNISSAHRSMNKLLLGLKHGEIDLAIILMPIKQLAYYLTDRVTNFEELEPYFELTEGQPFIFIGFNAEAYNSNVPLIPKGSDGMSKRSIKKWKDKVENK
Description: (§1) Cleavage reactions were also examined as a function of substrate concentration with a fixed concentration of BamHI (10 units in 100 μl total reaction volume). The reactions were initiated by the addition of BamHI and stopped by the addition of 25 mM EDTA 11 minutes after the enzyme was added. The reaction mixtures were subjected to native 20% polyacrylamide gel analysis. Since the DNA substrate was labeled with FITC, a photograph of the gel was taken under ultraviolet illumination (using a Kodak green filter) without staining the gel with ethidium bromide. Therefore, only the fluorescent-labeled DNA fragments were visualized, resulting in two DNA bands: a substrate band and a product band (5′-FITC-NH-CCCCG). A direct comparison was made between the data obtained from the fluorometric assay and the photographic data obtained from gel electrophoretic analysis. The kinetics of BamHI cleavage reactions as a function of DNA substrate concentration measured by fluorometric analysis are illustrated in FIG. 7A. […] Similarly, the reaction at 0.36 μM substrate reached near completion as shown by both the fluorescence (curve B, FIG. 7A) and the gel data (lane B, FIG. 7B). Higher DNA substrate concentrations, 0.72 μM (curve C, FIG. 7A) and 1.08 μM (curve D, FIG. 7A), yielded incomplete cleavage reactions (observed by changes in fluorescence intensity). […] It appears that the initial velocity of curve D is also slower than that of curve C. […] As expected, the PAGE data (FIG. 7B) show higher product formation in lane C compared to that of lane D.
The fractions of uncleaved and cleaved DNA were calculated from the fluorescence data utilizing equation 1 (see Methods). Fractions of uncleaved and cleaved DNA were also estimated from a photograph taken from the polyacrylamide gel. Utilizing a Hewlett Packard ScanJet IIp and the densitometry program Scan Analysis 68000 (BioSoft), the peaks obtained from each of the bands (substrate and products) were integrated and ratioed to obtain the relative amount of cleavage.

[2] = molecular target: T1, BamHI restriction endonuclease; assay: BamHI cleavage of FITC-labeled DNA substrate, continuous fluorometric (dequenching) assay; assay type: biochemical, Bacillus amyloliquefaciens H; details: 10 units BamHI in 100 μl, 37° C.
Description: Spectroscopic Measurements: Absorbance and absorption spectra were measured with a Hewlett-Packard 8450A diode array spectrophotometer. Using the extinction coefficient of fluorescein (E-78,000) at 492 nm, the concentration and total moles of fluorescein were calculated (Chen and Scott, supra). The amount of fluorescein conjugated to the oligonucleotide was estimated by subtracting the moles of fluorescein multiplied by the extinction coefficient of FITC at 260 nm, 23,000 M^−1 cm^−1, from the total absorbance at 260 nm. The remaining AU260 should be proportional to the DNA content. Steady-state fluorescence spectra and intensity were recorded with an SLM 8000 spectrophotofluorometer with 10-mm Glan-Thompson polarizers. Fluorescence emission measurements were performed under “magic angle” emission conditions (Spencer and Weber, J. Chem. Phys. 52:1654–1663 (1970)). A cuvette with a 3-mm excitation path length was used for all experiments. The absorbance of all fluorescence samples was less than 0.1 at the wavelength of excitation to avoid inner-filter effects. The temperatures of the samples were regulated with a Neslab Instruments, Inc., T.E.Q. temperature controller and a PBC4 bath cooler.
The extent of cleavage by BamHI was calculated from the fluorescence data utilizing the following equation:
[formula] where [DNA]c is the concentration of cleaved DNA, Ft is the fluorescence intensity at time, t, F∞is the fluorescence intensity at the plateau, F0 is the initial fluorescence intensity, and [DNA]i is the initial concentration of DNA. Results and Discussion
as §1
The fractions of uncleaved and cleaved DNA were calculated from the fluorescence data utilizing equation 1 (see Methods). Fractions of uncleaved and cleaved DNA were also estimated from a photograph taken from the polyacrylamide gel. […]

[3] = molecular target: T2, HIV-IN (Human immunodeficiency virus type 1 group M subtype B, UniProt P12497); assay: HIV-IN cleavage of fluorogenic substrate monitored by FRET; assay type: biochemical
T2 construct: The wild-type HIV-integrase protein was obtained from Dr. Robert Craigie; made in house; host or cells: Escherichia coli
Description: FIGS. 10A and 10B: FIG. 10A is a graph depicting steady-state emission spectra of a fluorogenic substrate in the presence and absence of HIV-IN. Curve A depicts the emission spectrum of 4 pmol of fluorogenic substrate in 400 μl reaction buffer containing 25 mM HEPES, pH 7.5, 50 mM NaCl, 2 mM DTT, and 5% glycerol at 37° C. Curve B depicts the emission spectrum of the same substrate digested with 40 pmol HIV-IN for 1 hour. Curve C depicts the difference emission spectrum of curve B and curve A. Emission spectra were recorded with an excitation wavelength at 460 nm.
FIGS. 11A, 11B, and 11C: FIG. 11A is a graph depicting the kinetics of an HIV-IN cleavage reaction of a fluorogenic substrate monitored by FRET. The DNA cleavage reaction was initiated by the addition of HIV-IN to a preincubated reaction mixture containing 4 pmol of substrate. The conditions for the reactions are the same as in FIG. 10. Changes in fluorescence intensity were monitored with excitation and emission wavelengths of 460 and 510 nm, respectively. Mn^2+ quenched the fluorescence intensity of the substrate in the absence of the enzyme; thus, the kinetic data presented in this figure were intensity normalized according to the intensity ratio of the substrate in the presence of Mg^2+ and in the presence of Mn^2+. FIG. 11B depicts the kinetics of an HIV-IN cleavage reaction of a fluorogenic substrate monitored by denaturing polyacrylamide gel electrophoresis (PAGE). The time course of a ^32P-5′-labeled fluorescent substrate was determined by radiographic assays. […] Reaction mixtures were analyzed by denaturing gel electrophoresis. Results were quantitated by utilizing a Hewlet-Packard ScanJet IIp and the densitometry program Scan Analysis 68020 (BioSoft). […]
Spectroscopic Measurements: Absorbance and absorption spectra were measured with a Hewlett-Packard 8450A diode array spectrophotometer. Steady-state fluorescence spectra and intensity were recorded with an SLM 8000 spectrophotofluorometer with 10-mm Glan-Thompson polarizers. […]

[4] = Curve A, [DNA] 0.21 μM, stopped after 11 minutes
[5] = Curve B, [DNA] 0.36 μM, stopped after 11 minutes
[6] = Curve C, [DNA] 0.72 μM, stopped after 11 minutes
[7] = Curve D, [DNA] 1.08 μM, stopped after 11 minutes
[8] = Curve E, [DNA] 0.18 μM, in the presence of 25 mM EDTA

| Molecule | % Cleavage PAGE [1, 4] | % Cleavage PAGE [1, 5] | % Cleavage PAGE [1, 6] | % Cleavage PAGE [1, 7] | % Cleavage PAGE [1, 8] | % Cleavage Fluorescence Assay [2, 4] | % Cleavage Fluorescence Assay [2, 5] | % Cleavage Fluorescence Assay [2, 6] | % Cleavage Fluorescence Assay [2, 7] | % Cleavage Fluorescence Assay [2, 8] | estimated efficiency of the cleavage reaction by HIV-IN ([3]; 4 pmol substrate, 40 pmol HIV-IN, 1 hour, 37° C., in the presence of Mg2+, relative to DNase I digestion) | changes in donor fluorescence with Mg2+ relative to Mn2+ ([3]; 7.5 mM Mg2+ vs 7.5 mM Mn2+, end of a 60 minute reaction, intensity normalized) | cleavage of substrate by integrase (increase in fluorescence intensity) ([3]; in the presence of 20 mM EDTA, 37° C.) |
| --- | --- | --- | --- | --- | --- | --- | --- | --- | --- | --- | --- | --- | --- |
| 5′-FITC-NH-CCCCGGATCCACCC-3′ (SEQ ID NO:1) annealed to 3′-GGGGCCTAGGTGGG-5′ (SEQ ID NO:2) (antisense GGGTGGATCCGGGG; sense: DNA, 5' {FITC}, backbone and methylation of C not given here; antisense: DNA, backbone and methylation of C not given here; further chemistry not fully specified) [FITC-labeled DNA Substrates, 14-mer FITC-labeled oligonucleotide with the BamHI restriction site, annealed to its unlabeled complementary strand] | 100% | 92.3% | 60.6% | 30.1% | 0% | 100% | 91.9% | 59.5% | 32.2% | 0% |  |  |  |
| B1 |  |  |  |  |  |  |  |  |  |  | 35% | approximately 3 times | not cleaved |
